Series [1] is described as follows: Terminal half life in Sprague-Dawley rat at 2 mg/kg, po or 0.5 mg/kg, iv by LC/MS/MS analysis. Format: ADME, organism-based. The conditions noted are these: in vivo, read-out: beta t1/2 (converted).
Series [2] in a line: Cmax in Sprague-Dawley rat at 200 mg/kg, po using crystalline sample during 7 day dose ranging study by LC/MS/MS analysis. The format is ADME, organism-based. Set-up: dose 200 mg/kg, route oral. The conditions noted are these: in vivo.
The target in series [3] is Toll-like receptor 4 (Homo sapiens, UniProt O00206). The experiment in a line: Inhibition of TLR4 in human monocytes assessed as reduction in LPS-induced TNFalpha production. Format: cell-based.
Sequence of Toll-like receptor 4 (O00206 whole entry): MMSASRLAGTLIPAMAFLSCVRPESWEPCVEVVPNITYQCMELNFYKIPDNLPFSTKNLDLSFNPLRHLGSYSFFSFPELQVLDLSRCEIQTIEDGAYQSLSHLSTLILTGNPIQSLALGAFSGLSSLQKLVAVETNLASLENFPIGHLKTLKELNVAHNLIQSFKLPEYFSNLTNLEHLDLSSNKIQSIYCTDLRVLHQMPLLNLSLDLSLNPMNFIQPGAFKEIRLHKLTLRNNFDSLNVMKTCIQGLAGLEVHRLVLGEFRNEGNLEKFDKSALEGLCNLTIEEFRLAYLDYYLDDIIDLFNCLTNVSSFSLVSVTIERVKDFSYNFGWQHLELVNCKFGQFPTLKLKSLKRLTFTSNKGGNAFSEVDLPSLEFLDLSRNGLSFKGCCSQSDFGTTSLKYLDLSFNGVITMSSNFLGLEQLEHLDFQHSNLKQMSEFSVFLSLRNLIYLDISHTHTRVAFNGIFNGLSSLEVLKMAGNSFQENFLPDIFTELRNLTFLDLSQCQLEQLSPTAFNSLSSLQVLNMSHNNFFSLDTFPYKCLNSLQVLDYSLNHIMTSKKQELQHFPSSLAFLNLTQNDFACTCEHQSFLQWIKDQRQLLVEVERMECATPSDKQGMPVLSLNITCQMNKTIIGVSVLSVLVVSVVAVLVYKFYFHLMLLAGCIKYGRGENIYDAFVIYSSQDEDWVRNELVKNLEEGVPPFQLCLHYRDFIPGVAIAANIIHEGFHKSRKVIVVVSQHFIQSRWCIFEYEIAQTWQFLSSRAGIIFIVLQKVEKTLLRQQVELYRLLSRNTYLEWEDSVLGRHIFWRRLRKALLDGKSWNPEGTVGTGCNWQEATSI
Series [4] is described as follows: Unbound fraction in minipig blood. Format: ADME, tissue-based, Sus scrofa. The note with it: pig.
Series [5] has as its system Intestinal mucosa. The experiment in a line: Antiinflammatory activity in crohn's disease patient derived inflamed intestinal mucosa assessed as reduction in IL6 production measured after overnight incubation by immunoassay. The format is functional, tissue-based. The conditions noted are these: Homo sapiens.
Series [6] can be described thus: Volume of distribution at steady state in Beagle dog assessed as 2-((4-(Benzo[d]thiazol-5-ylamino)-6-(tert-butylsulfonyl)quinazolin-7-yl)oxy)ethanol level at 2 mg/kg, po or 0.9 mg/kg, iv by LC/MS/MS analysis. The format is ADME, organism-based, Canis lupus familiaris. The conditions noted are these: in vivo.
The nature of series [7]: Solubility of the compound in FaSSIF measured after 4 hrs using hemi-calcium salt form of compound. The format is physicochemical.
Series [8] can be described thus: Prodrug conversion in Han Wistar rat colon assessed as 2-((4-(Benzo[d]thiazol-5-ylamino)-6-(tert-butylsulfonyl)quinazolin-7-yl)oxy)ethanol formation at 2 mg/kg, iv administered as infusion for 4 hrs. The format is ADME, organism-based. The conditions noted are these: in vivo.
Series [9] can be described thus: Prodrug conversion in Han Wistar rat eye assessed as 2-((4-(Benzo[d]thiazol-5-ylamino)-6-(tert-butylsulfonyl)quinazolin-7-yl)oxy)ethanol formation at 2 mg/kg, iv administered as infusion for 4 hrs. The format is ADME, organism-based. The conditions noted are these: in vivo.
Series [10] in a line: Prodrug conversion in rat hepatocytes assessed as dephosphorylation at 20 uM measured after 4 hrs. Format: ADME, cell-based, Hepatocyte.
The nature of series [11]: Prodrug conversion in minipig hepatocytes assessed as benzothiazole ring opening at 20 uM measured after 4 hrs. Format: ADME, cell-based, Sus scrofa, Hepatocyte. The conditions noted are these: pig.
Series [12] in a line: Prodrug conversion in human hepatocytes assessed as 2-(4-(benzo[d]thiazol-5-ylamino)-6-(tert-butylsulfonyl)quinazolin-7-yloxy)acetic acid formation at 20 uM measured after 4 hrs. Format: ADME, cell-based, Hepatocyte.
A short description of series [13]: Toxicity in Gottingen minipig during 6 week study. Set-up: species or system Sus scrofa. The conditions noted are these: pig, in vivo, 1008 h.

These results are taken from ChEMBL document CHEMBL4364295, “Discovery of a First-in-Class Receptor Interacting Protein 2 (RIP2) Kinase Specific Clinical Candidate, 2-((4-(Benzo[d]thiazol-5-ylamino)-6-(tert-butylsulfonyl)quinazolin-7-yl)oxy)ethyl Dihydrogen Phosphate, for the Treatment of Inflammatory Diseases” (J Med Chem, 2019).

Consider `CC(C)(C)S(=O)(=O)c1cc2c(Nc3ccc4scnc4c3)ncnc2cc1OCCO`, for which the half-life in series [1] was 4.4 h. The compound further showed a Cmax in [2] of 4900 ng/mL. Besides, the IC50 in series [3] is > 10000 nM. In series [4], the fraction unbound came out at 0.068. In [5], the Activity entry was “Dose-dependent effect” and the IC50 was determined as 10 nM.

In the case of `CC(C)(C)S(=O)(=O)c1cc2c(Nc3ccc4scnc4c3)ncnc2cc1OCCOP(=O)(O)O.[CaH2]`, in series [6], the Vdss came out at 2 L/kg. For the same compound, the solubility at 4 h in [7] stood at 130 µg/mL. In addition, the Drug metabolism entry in series [8], in series [9], in [10], in [11] and in series [12] was “Metabolite_Detected” each time. Further, the Activity entry in series [13] is reported as “Non-Toxic”.

A word on the Cmax: it is the maximum level reached in the sampled fluid or tissue. What is called IC50 is the concentration that inhibits the measured activity by half. The term fraction unbound denotes the share of the substance not bound to proteins or other matrix. Higher therefore signals much free substance. The term solubility denotes the concentration that dissolves in the medium under given conditions.
